PubChem BioAssay AID1259407 (Chemical Carcinogenesis Research Information System (CCRIS), 2018)
Active and inactive are the calls of the source. The rule behind the calls is not given here.

System: CCRIS mutagenicity, Ames/micronucleus/aberration tests
Assay: CCRIS mutagenicity studies
[1] = Test System: AMES SALMONELLA TYPHIMURIUM, Strain/Indicator: TA98, Metabolic Activation: NONE, Method: STANDARD PLATE
[2] = Test System: AMES SALMONELLA TYPHIMURIUM, Strain/Indicator: TA98, Metabolic Activation: RAT, LIVER, S-9, AROCLOR 1254, Method: STANDARD PLATE
[3] = Test System: AMES SALMONELLA TYPHIMURIUM, Strain/Indicator: TA100, Metabolic Activation: NONE, Method: STANDARD PLATE
[4] = Test System: AMES SALMONELLA TYPHIMURIUM, Strain/Indicator: TA100, Metabolic Activation: RAT, LIVER, S-9, AROCLOR 1254, Method: STANDARD PLATE
[5] = Test System: MOUSE LYMPHOMA, Strain/Indicator: L5178Y (TK+/TK-), Metabolic Activation: NONE, Method: SUSPENSION/PLATE
[6] = Test System: AMES SALMONELLA TYPHIMURIUM, Strain/Indicator: TA98, Metabolic Activation: NONE, Method: PREINCUBATION
[7] = Test System: AMES SALMONELLA TYPHIMURIUM, Strain/Indicator: TA100, Metabolic Activation: NONE, Method: PREINCUBATION

Structure (SMILES): O=[N+]([O-])/C(Br)=C\c1ccccc1
- mutagenic call (Test System: AMES SALMONELLA TYPHIMURIUM, Strain/Indicator: TA98, Metabolic Activation: HAMSTER, LIVER, S-9, AROCLOR 1254, Method: STANDARD PLATE): inactive; negative
- mutagenic call [1]: inactive; negative
- mutagenic call [2]: inactive; negative
- mutagenic call (Test System: AMES SALMONELLA TYPHIMURIUM, Strain/Indicator: TA100, Metabolic Activation: HAMSTER, LIVER, S-9, AROCLOR 1254, Method: STANDARD PLATE): inactive; negative
- mutagenic call [3]: inactive; negative
- mutagenic call [4]: inactive; negative
- mutagenic call (Test System: AMES SALMONELLA TYPHIMURIUM, Strain/Indicator: TA1535, Metabolic Activation: HAMSTER, LIVER, S-9, AROCLOR 1254, Method: STANDARD PLATE): inactive; negative
- mutagenic call (Test System: AMES SALMONELLA TYPHIMURIUM, Strain/Indicator: TA1535, Metabolic Activation: NONE, Method: STANDARD PLATE): inactive; negative
- mutagenic call (Test System: AMES SALMONELLA TYPHIMURIUM, Strain/Indicator: TA1535, Metabolic Activation: RAT, LIVER, S-9, AROCLOR 1254, Method: STANDARD PLATE): inactive; negative
- mutagenic call (Test System: AMES SALMONELLA TYPHIMURIUM, Strain/Indicator: TA1537, Metabolic Activation: HAMSTER, LIVER, S-9, AROCLOR 1254, Method: STANDARD PLATE): inactive; negative
- mutagenic call (Test System: AMES SALMONELLA TYPHIMURIUM, Strain/Indicator: TA1537, Metabolic Activation: NONE, Method: STANDARD PLATE): inactive; negative
- mutagenic call (Test System: AMES SALMONELLA TYPHIMURIUM, Strain/Indicator: TA1537, Metabolic Activation: RAT, LIVER, S-9, AROCLOR 1254, Method: STANDARD PLATE): inactive; negative
- mutagenic call (Test System: AMES SALMONELLA TYPHIMURIUM, Strain/Indicator: TA1538, Metabolic Activation: HAMSTER, LIVER, S-9, AROCLOR 1254, Method: STANDARD PLATE): inactive; negative
- mutagenic call (Test System: AMES SALMONELLA TYPHIMURIUM, Strain/Indicator: TA1538, Metabolic Activation: NONE, Method: STANDARD PLATE): inactive; negative
- mutagenic call (Test System: AMES SALMONELLA TYPHIMURIUM, Strain/Indicator: TA1538, Metabolic Activation: RAT, LIVER, S-9, AROCLOR 1254, Method: STANDARD PLATE): inactive; negative
- mutagenic call [5]: inactive; negative. reevaluation of results: negative
- mutagenic call (Test System: MOUSE LYMPHOMA, Strain/Indicator: L5178Y (TK+/TK-), Metabolic Activation: RAT, LIVER, S-9, AROCLOR 1254, Method: SUSPENSION/PLATE): inactive; negative. reevaluation of results: negative

Structure (SMILES): O=Cc1ccc(Cl)cc1
- mutagenic call [6]: inactive; negative
- mutagenic call (Test System: AMES SALMONELLA TYPHIMURIUM, Strain/Indicator: TA98, Metabolic Activation: RAT LIVER S-9, PCB, Method: PREINCUBATION): inactive; negative
- mutagenic call [7]: inactive; negative
- mutagenic call (Test System: AMES SALMONELLA TYPHIMURIUM, Strain/Indicator: TA100, Metabolic Activation: RAT LIVER S-9, AROCLOR 1254, Method: PREINCUBATION): inactive; negative
- mutagenic call (Test System: AMES SALMONELLA TYPHIMURIUM, Strain/Indicator: TA100, Metabolic Activation: RAT LIVER S-9, PCB, Method: PREINCUBATION): inactive; negative
- mutagenic call (Test System: AMES SALMONELLA TYPHIMURIUM, Strain/Indicator: TA102, Metabolic Activation: NONE, Method: PREINCUBATION): inactive; negative
- mutagenic call (Test System: AMES SALMONELLA TYPHIMURIUM, Strain/Indicator: TA102, Metabolic Activation: RAT LIVER S-9, AROCLOR 1254, Method: PREINCUBATION): inactive; negative
- mutagenic call (Test System: AMES SALMONELLA TYPHIMURIUM, Strain/Indicator: TA104, Metabolic Activation: NONE, Method: PREINCUBATION): inactive; negative
- mutagenic call (Test System: AMES SALMONELLA TYPHIMURIUM, Strain/Indicator: TA104, Metabolic Activation: RAT LIVER S-9, AROCLOR 1254, Method: PREINCUBATION): inactive; negative
- mutagenic call (Test System: AMES SALMONELLA TYPHIMURIUM, Strain/Indicator: TA104, Metabolic Activation: RAT LIVER S-9, PCB, Method: PREINCUBATION): inactive; negative
- mutagenic call (Test System: E. COLI, Strain/Indicator: WP2 UVRA, Metabolic Activation: NONE, Method: PREINCUBATION): inactive; negative
- mutagenic call (Test System: E. COLI, Strain/Indicator: WP2 UVRA, Metabolic Activation: RAT LIVER S-9, PCB, Method: PREINCUBATION): inactive; negative
- mutagenic call [5]: inactive; positive. reevaluation of results: negative
- mutagenic call (Test System: Mouse lymphoma, Strain/Indicator: L5178Y (tk+/tk-), Metabolic Activation: Rat, Liver, S-9, Aroclor 1254, Method: Suspension/plate): inactive; negative

Structure (SMILES): CCCCCN(CCCC)N=O
- mutagenic call (Test System: AMES SALMONELLA TYPHIMURIUM, Strain/Indicator: TA100, Metabolic Activation: RAT, LIVER, S-9, KC500 OR PHENOBARBITAL, Method: LIQUID SUSPENSION): active; positive

Structure (SMILES): CCCCC(CC)COC(=O)CCCCC(=O)O (stereo unspecified)
- mutagenic call (Test System: AMES SALMONELLA TYPHIMURIUM, Strain/Indicator: TA97, Metabolic Activation: NONE, Method: STANDARD PLATE): inactive; negative
- mutagenic call (Test System: AMES SALMONELLA TYPHIMURIUM, Strain/Indicator: TA97, Metabolic Activation: RAT, LIVER, S-9, AROCLOR 1254, Method: STANDARD PLATE): inactive; negative
- mutagenic call (Test System: AMES SALMONELLA TYPHIMURIUM, Strain/Indicator: TA97, Metabolic Activation: RAT, LIVER, S-9, DI(2-ETHYLHEXYL)PHTHALATE, Method: STANDARD PLATE): inactive; negative
- mutagenic call (Test System: AMES SALMONELLA TYPHIMURIUM, Strain/Indicator: TA98, Metabolic Activation: HAMSTER, LIVER, S-9, AROCLOR 1254 (10%), Method: PREINCUBATION): inactive; negative
- mutagenic call [6]: inactive; negative
- mutagenic call [1]: inactive; negative
- mutagenic call (Test System: AMES SALMONELLA TYPHIMURIUM, Strain/Indicator: TA98, Metabolic Activation: RAT, LIVER, S-9, AROCLOR 1254 (10%), Method: PREINCUBATION): inactive; negative
- mutagenic call [2]: inactive; negative
- mutagenic call (Test System: AMES SALMONELLA TYPHIMURIUM, Strain/Indicator: TA98, Metabolic Activation: RAT, LIVER, S-9, DI(2-ETHYLHEXYL)PHTHALATE, Method: STANDARD PLATE): inactive; negative
- mutagenic call (Test System: AMES SALMONELLA TYPHIMURIUM, Strain/Indicator: TA100, Metabolic Activation: HAMSTER, LIVER, S-9, AROCLOR 1254 (10%), Method: PREINCUBATION): inactive; negative
- mutagenic call [7]: inactive; negative
- mutagenic call [3]: inactive; negative
- mutagenic call (Test System: AMES SALMONELLA TYPHIMURIUM, Strain/Indicator: TA100, Metabolic Activation: RAT, LIVER, S-9, AROCLOR 1254 (10%), Method: PREINCUBATION): inactive; negative
- mutagenic call [4]: inactive; negative
- mutagenic call (Test System: AMES SALMONELLA TYPHIMURIUM, Strain/Indicator: TA100, Metabolic Activation: RAT, LIVER, S-9, DI(2-ETHYLHEXYL)PHTHALATE, Method: STANDARD PLATE): inactive; negative
- mutagenic call (Test System: AMES SALMONELLA TYPHIMURIUM, Strain/Indicator: TA102, Metabolic Activation: NONE, Method: STANDARD PLATE): inactive; negative
- mutagenic call (Test System: AMES SALMONELLA TYPHIMURIUM, Strain/Indicator: TA102, Metabolic Activation: RAT, LIVER, S-9, AROCLOR 1254, Method: STANDARD PLATE): inactive; negative
- mutagenic call (Test System: AMES SALMONELLA TYPHIMURIUM, Strain/Indicator: TA102, Metabolic Activation: RAT, LIVER, S-9, DI(2-ETHYLHEXYL)PHTHALATE, Method: STANDARD PLATE): inactive; negative
- mutagenic call (Test System: AMES SALMONELLA TYPHIMURIUM, Strain/Indicator: TA1535, Metabolic Activation: HAMSTER, LIVER, S-9, AROCLOR 1254 (10%), Method: PREINCUBATION): inactive; negative
- mutagenic call (Test System: AMES SALMONELLA TYPHIMURIUM, Strain/Indicator: TA1535, Metabolic Activation: NONE, Method: PREINCUBATION): inactive; negative
- mutagenic call (Test System: AMES SALMONELLA TYPHIMURIUM, Strain/Indicator: TA1535, Metabolic Activation: RAT, LIVER, S-9, AROCLOR 1254 (10%), Method: PREINCUBATION): inactive; negative
- mutagenic call (Test System: AMES SALMONELLA TYPHIMURIUM, Strain/Indicator: TA1537, Metabolic Activation: HAMSTER, LIVER, S-9, AROCLOR 1254 (10%), Method: PREINCUBATION): inactive; negative
- mutagenic call (Test System: AMES SALMONELLA TYPHIMURIUM, Strain/Indicator: TA1537, Metabolic Activation: NONE, Method: PREINCUBATION): inactive; negative
- mutagenic call (Test System: AMES SALMONELLA TYPHIMURIUM, Strain/Indicator: TA1537, Metabolic Activation: RAT, LIVER, S-9, AROCLOR 1254 (10%), Method: PREINCUBATION): inactive; negative
